Laboratory results from US20230167437A1, “COMPOSITIONS FOR TREATING CANCER WITH KRAS MUTATIONS AND USES THEREOF” (Aadigen, LLC, priority 2020, published 2023).

Tests used:
Assay type in all cases: cell-based, human
KRAS 34G>T mutant G12C = assay: Indel frequencies at the endogenous target sequences (T7E1 / deep sequencing) after ADGN/Cas9 mRNA/gRNA transfection; details: Mia-PACA, H23, H358 vs HT29 and PANC1 cells
Description: (§1) Complex formation with mRNA:gRNA: ADGN peptide/mRNA/gRNA particles were prepared at a 20:1:1 molar ratio. ADGN/Cas9mRNA/sgRNA complexes were prepared at a 20/1/1 molar ratio with 0.5 μg mRNA: 1.5 μg sgRNA and 5% Glucose or DMEM (example for 96 well plates). […] Premixed Cas9 mRNA/gRNA were prepared in sterile water at room temperature in a glass vial (1-4 ml). ADGN-peptide solution was added dropwise (1 drop/sec) under magnetic agitation at 400 rpm to obtain a 1:2 ratio, and incubated for 30 min at room temperature or 37° C. Just before transfection, 150 μl Glucose or DMEM was added and the solution was mixed under magnetic agitation at 400 rpm for 1 minute. Then the solution was incubated for 5 min at 37° C. Then the complexes was ready for cell transfection or IV administration. Prior to IV administration, complexes were diluted in sucrose 5% solution.
(§2) Transfection protocol. The following protocols are reported for 24/48/96 well plate format transfection. Cells should be trypsinized and seeded a day prior transfection Cells were cultured in Dulbecco's Modified Eagle's Medium (DMEM), supplemented with 2 mM glutamine, 1% antibiotics (streptomycin 10,000 μg/mL, penicillin, 10,000 IU/mL) and 10% (w/v) foetal calf serum (FCS), at 37° C. in a humidified atmosphere containing 5% CO2. 96 well plates seeded with 50,000 cells, the day prior transfection, grown to 60-80% confluence and set up to be at around 70% confluence at the day of transfection. Before transfection, cells are washed twice with DMEM (without FBS and pen/strep) (100 μl/well). Cells were then overlaid with 25 μl of complex solution, mixed gently and incubated for 10 min at 37° C.+5% CO2. 50 μl of fresh DMEM (without FBS and Antibiotics) was added and cells were incubated for 2 h at 37° C.+5% CO2 (time of exposure can be adjusted based on sensitivity of the cells). 250 μL of DMEM (containing 10% FCS and 1% antibiotics) were then added without removing the overlay of ADGN peptide/mRNA complexes. Cells were returned to the incubator (37° C., 5% CO2) and analyzed 48 hours to 72 hours post transfection.
Eight different gRNAs targeting KRAS 34G>T mutant G12C (gRNA34T1, gRNA34T2, gRNA34T3, gRNA34T4, gRNA34T5, gRNA34T6, gRNA34T7 and gRNA34T8) were evaluated on MIA-PACA, H23, H358, H29 and PANC1 cells. Cas9 mRNA (0.1 μg) and gRNA (0.2 μg) were associated with ADGN peptide at molar ratio 20/1 (peptide/nucleic acid). MIA-PACA, H23, H358, PANC1 and HT29 cells were cultured in 48 well plate format and treated with free mRNACas9-gRNA, or ADGN/mRNACas9:gRNA complex. Indel frequencies at the endogenous target sequences was evaluated 72 hours after transfection by either T7E1 method or deep sequencing. Cell proliferation was analyzed over a period of 5 days using CellTiter Glow kits on GlowMax (Promega).
(§3) In order to confirm the specificity of sgRNAs targeting G12V, G12C or G12D KRAS mutation, gRNA35T3 targeting G12V, gRNA34T6 targeting G12C, and gRNA35A5 targeting G12D were evaluated on a large panel of cancer cells harboring different KRAS mutations including SW403, SW480, PANC1, PK-45H, PK-1, MIA-PACA, H23, H358, HT-29, HS-68 and LS513. Cas9 mRNA (0.2 μg) and gRNA (0.4 μg) were associated with ADGN peptide at molar ratio 20/1 (peptide/nucleic acid). Cells were cultured in 48 well plate format and treated with free mRNACas9-gRNA, or ADGN/mRNACas9:gRNA complex. Indel frequencies at the endogenous target sequences was evaluated 72 hours after transfection by either T7E1 method and cell proliferation was analyzed over a period of 5 days using CellTiter Glow kits on GlowMax (Promega).

KRAS 35G>A mutant G12D = assay: as above; details: for disruption of G12D mutant KRAS (FIG. 2A): G12D cancer cells vs wild type KRAS cells (HT29 or HS-68); for indel frequencies: deep sequencing, 72 hours after transfection, Cas9 mRNA 0.1 μg, gRNA 0.2 μg
Description: as §1, §2
(§4) Nine different gRNAs targeting KRAS 35G>A mutant G12D (gRNA35A1, gRNA35A2, gRNA35A3, gRNA35A4, gRNA35A5, gRNA35A6; gRNA35A7, gRNA35A8, gRNA35A9) were evaluated on LS513, Panc1, PK-45H, and PK1 cancer cells harboring G12D KRAS mutation. Cas9 mRNA (0.1 μg) and gRNA (0.2 μg) were associated with ADGN-peptide at molar ratio 20/1 (peptide/nucleic acid). LS513, Panc1, PK-45H, PK1, HS-68 and HT-29 cells were cultured in 48 well plate format and treated with free mRNACas9-gRNA, or ADGN/mRNACas9:gRNA complex. Indel frequencies at the endogenous target sequences was evaluated 72 hours after transfection by either T7E1 method or deep sequencing. Cell proliferation was analyzed over a period of 5 days using CellTiter Glow kits on GlowMax (Promega).
as §3

wild type KRAS = assay: as above; details: for indel frequencies: deep sequencing, 72 hours after transfection, Cas9 mRNA 0.1 μg, gRNA 0.2 μg
Description: as §1, §2
(§5) Nine different gRNAs targeting KRAS 35G>T mutant G12V (gRNA35T1, gRNA35T2, gRNA35T3, gRNA35T4, gRNA35T5, gRNA35T6, gRNA35T7, gRNA35T8 and gRNA35T9 (see FIG. 18)) were evaluated on SW403 and SW480 cancer cells harboring G12V KRAS mutation. Cas9 mRNA (0.15 μg) and gRNA (0.2 μg) were associated with ADGN-peptides as reported in experimental procedure. SW403, SW480 and HT-29 cells were cultured in 48 well plate format and treated with free mRNACas9-gRNA, or ADGN-100/mRNACas9:gRNA complex. Indel frequencies at the endogenous target sequences was evaluated 72 hours after transfection by either T7E1 method and by deep sequencing. Cell proliferation was analyzed over a period of 5 days using CellTiter Glow kits on GlowMax (Promega).
as §4

[1] = tested on: PANC1, PK1, LS513 and PK-45H cells; assay: Cell proliferation over 5 days (CellTiter Glow); details: PANC1, PK1, LS513, PK-45H vs HT29 or HS-68 cells harboring KRAS WT
Description: as §2, §4

KRAS 35G>T mutant G12V = assay: Indel frequencies at the endogenous target sequences (T7E1 / deep sequencing) after ADGN/Cas9 mRNA/gRNA transfection; details: SW403, SW480 vs wild type KRAS HT29 cells; T7E1
Description: as §1, §2, §5, §3

Question: “GGTAGTTGGAGCTTGTGGCG (guide GGTAGTTGGAGCTTGTGGCG; chemistry not given here) [gRNA34T4, sgRNA target KRAS G12C mutation (34G>T); PAM TAG]” was tested. Which “indel editing and disruption of G12C mutant KRAS (FIG. 3A)” value (“indel editing and disruption … (FIG. 3A)” below) (KRAS 34G>T mutant G12C) did it give?
Answer: inefficient or less specific affecting wild type KRAS

Question: For “GTT GGA GCT GAT GGC GT (guide GTTGGAGCTGATGGCGT; chemistry not given here) [gRNA35A6, sgRNA target KRAS G12D mutation (35G>A); PAM AGG]”, which “disruption of G12D mutant KRAS (FIG. 2A)” value (KRAS 35G>A mutant G12D) is on record?
Answer: induced efficient disruption of G12D mutant KRAS

Question: What about the indel frequencies (KRAS 35G>A mutant G12D; LS513 cells) of the same sequence?
Answer: 32 ± 5%

Question: And the indel frequencies (KRAS 35G>A mutant G12D; PANC1 cells)?
Answer: 60 ± 2%

Question: What about the indel frequencies (KRAS 35G>A mutant G12D; PK1 cells) of the same sequence?
Answer: 37 ± 0.4%

Question: What about the indel frequencies (KRAS 35G>A mutant G12D; PK-45H cells) of the same sequence?
Answer: 48 ± 1%

Question: And the indel frequencies (wild type KRAS; HS68 cells (WT KRAS))?
Answer: 2 ± 1%

Question: What about the indel frequencies (wild type KRAS; HT-29 cells (WT KRAS)) of the same sequence?
Answer: 5 ± 1%

Question: And the “inhibition of proliferation or survival (FIG. 2B)” value [1]?
Answer: specifically inhibit proliferation or survival of PANC1, PK1, LS513 and PK-45H cells

Question: Which results are given for “TGA TGG CGT AGG CAA GAGT (guide TGATGGCGTAGGCAAGAGT; chemistry not given here) [gRNA35A4, sgRNA target KRAS G12D mutation (35G>A); PAM GCC]”?
Answer: indel frequencies (KRAS 35G>A mutant G12D; LS513 cells): 5 ± 2%; indel frequencies (KRAS 35G>A mutant G12D; PANC1 cells): 4 ± 1%; indel frequencies (KRAS 35G>A mutant G12D; PK1 cells): 9 ± 0.1%; indel frequencies (KRAS 35G>A mutant G12D; PK-45H cells): 7 ± 2%; indel frequencies (wild type KRAS; HS68 cells (WT KRAS)): 5 ± 0.7%; indel frequencies (wild type KRAS; HT-29 cells (WT KRAS)): 2 ± 1%

Question: With “AGC TTG TGG CGT AGG CAA (guide AGCTTGTGGCGTAGGCAA; chemistry not given here) [gRNA34T2, sgRNA target KRAS G12C mutation (34G>T); PAM GAG]” as the sequence, how does the “indel editing and disruption … (FIG. 3A)” value (KRAS 34G>T mutant G12C) read?
Answer: inefficient or less specific affecting wild type KRAS

Question: How did the indel frequencies (KRAS 35G>A mutant G12D; LS513 cells) turn out when “TTG TGG TAG TTG GAG CTG A (guide TTGTGGTAGTTGGAGCTGA; chemistry not given here) [gRNA35A8, sgRNA target KRAS G12D mutation (35G>A); PAM TGG]” was run?
Answer: 7 ± 1%

Question: And the indel frequencies (KRAS 35G>A mutant G12D; PANC1 cells)?
Answer: 9 ± 2%

Question: What about the indel frequencies (KRAS 35G>A mutant G12D; PK1 cells) of the same sequence?
Answer: 18 ± 1%

Question: And the indel frequencies (KRAS 35G>A mutant G12D; PK-45H cells)?
Answer: 11 ± 1%

Question: What about the indel frequencies (wild type KRAS; HS68 cells (WT KRAS)) of the same sequence?
Answer: 6 ± 0.1%

Question: And the indel frequencies (wild type KRAS; HT-29 cells (WT KRAS))?
Answer: 2 ± 0.2%

Question: “GCT TGT GGC GTA GGC AA (guide GCTTGTGGCGTAGGCAA; sgRNA, chemical modifications not given here, further chemistry not given here) [gRNA34T7, sgRNA target KRAS G12C mutation (34G>T); PAM GAG]” was tested. Which “indel editing and disruption … (FIG. 3A)” value (KRAS 34G>T mutant G12C) did it give?
Answer: inefficient or less specific affecting wild type KRAS

Question: What does the source list for “CTTGTGGTAGTTGGAGCTGA (guide CTTGTGGTAGTTGGAGCTGA; chemistry not given here) [gRNA35A1, sgRNA target KRAS G12D mutation (35G>A); PAM TGG]”?
Answer: indel frequencies (KRAS 35G>A mutant G12D; LS513 cells): 17 ± 2%; indel frequencies (KRAS 35G>A mutant G12D; PANC1 cells): 32 ± 2%; indel frequencies (KRAS 35G>A mutant G12D; PK1 cells): 12 ± 1%; indel frequencies (KRAS 35G>A mutant G12D; PK-45H cells): 15 ± 0.8%; indel frequencies (wild type KRAS; HS68 cells (WT KRAS)): 8 ± 1%; effect on wild type KRAS cells (wild type KRAS; HT-29 and HS-68 cells): also affected wild type KRAS cells; indel frequencies (wild type KRAS; HT-29 cells (WT KRAS)): 10 ± 1%; inhibition of proliferation or survival (FIG. 2B) [1]: specifically inhibit proliferation or survival of PANC1, PK1, LS513 and PK-45H cells

Question: What does the source list for “GCT GAT GGC GTA GGC AA (guide GCTGATGGCGTAGGCAA; chemistry not given here) [gRNA35A9, sgRNA target KRAS G12D mutation (35G>A); PAM GAG]”?
Answer: disruption of G12D mutant KRAS (FIG. 2A) (KRAS 35G>A mutant G12D): induced efficient disruption of G12D mutant KRAS; indel frequencies (KRAS 35G>A mutant G12D; LS513 cells): 21 ± 3%; indel frequencies (KRAS 35G>A mutant G12D; PANC1 cells): 25 ± 3%; indel frequencies (KRAS 35G>A mutant G12D; PK1 cells): 34 ± 1%; indel frequencies (KRAS 35G>A mutant G12D; PK-45H cells): 18 ± 2%; indel frequencies (wild type KRAS; HS68 cells (WT KRAS)): 12 ± 1%; indel frequencies (wild type KRAS; HT-29 cells (WT KRAS)): 17 ± 3%

Question: “AGC TGA TGG CGT AGG CAA (guide AGCTGATGGCGTAGGCAA; chemistry not given here) [gRNA35A3, sgRNA target KRAS G12D mutation (35G>A); PAM GAG]” was tested. Which indel frequencies (KRAS 35G>A mutant G12D; LS513 cells) did it give?
Answer: 9 ± 1%

Question: And the indel frequencies (KRAS 35G>A mutant G12D; PANC1 cells)?
Answer: 7 ± 1%

Question: And the indel frequencies (KRAS 35G>A mutant G12D; PK1 cells)?
Answer: 2 ± 0.5%

Question: What about the indel frequencies (KRAS 35G>A mutant G12D; PK-45H cells) of the same sequence?
Answer: 4 ± 1%

Question: What about the indel frequencies (wild type KRAS; HS68 cells (WT KRAS)) of the same sequence?
Answer: 4 ± 1%

Question: And the indel frequencies (wild type KRAS; HT-29 cells (WT KRAS))?
Answer: 1 ± 0.5%

Question: How did the “indel editing and disruption … (FIG. 3A)” value (KRAS 34G>T mutant G12C) turn out when “CTT GTG GCG TAG GCA AGAGT (guide CTTGTGGCGTAGGCAAGAGT; sgRNA, chemical modifications not given here, further chemistry not given here) [gRNA34T8, sgRNA target KRAS G12C mutation (34G>T); PAM GCC]” was run?
Answer: inefficient or less specific affecting wild type KRAS

Question: Which “indel editing and disruption of G12V mutant KRAS (FIG. 1A)” value (KRAS 35G>T mutant G12V) does the source give for “TTG TGG TAG TTG GAG CTG T (guide TTGTGGTAGTTGGAGCTGT; chemistry not given here) [gRNA35T7, sgRNA target KRAS G12V mutation (c.35G>T); PAM TGG]” here?
Answer: specifically induced indel editing and efficient disruption
